From US20240109918A1, “HETEROCYCLIC COMPOUNDS AND USES THEREOF” (Kumquat Biosciences Inc., priority 2022, published 2024)

What was measured:
KRASG12D = target: T1, KRASG12D (Homo sapiens, UniProt P01116, G12D); assay: Bio-Biochem-PPI-HTRF Ras-SOS1 interaction assay (KRAS G12D); type: biochemical; conditions: 5 nM
T1 construct: made in house; host or cells: E. coli BL21 (DE3)
In short: (§1)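 HTRF measurement of GST-K-Ras (wt or G12D) binding to His-hSOS1, via anti-GST-Eu(K) donor and anti-6His-XL665 acceptor, in HEPES pH 7.4 buffer with NaCl, DTT, BSA and Igepal. Read after ≥10 min; compounds in duplicate from 10 μM down to 0.01 μM. IC50 from 665/620 nm ratio.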

KRASwt = target: T2, KRASwt (Homo sapiens, UniProt P01116); assay: Bio-Biochem-PPI-HTRF Ras-SOS1 interaction assay (KRAS wt); type: biochemical; conditions: 5 nM
T2 construct: made in house; host or cells: E. coli BL21 (DE3)
T2 sequence (P01116 1-188 isoform P01116-2): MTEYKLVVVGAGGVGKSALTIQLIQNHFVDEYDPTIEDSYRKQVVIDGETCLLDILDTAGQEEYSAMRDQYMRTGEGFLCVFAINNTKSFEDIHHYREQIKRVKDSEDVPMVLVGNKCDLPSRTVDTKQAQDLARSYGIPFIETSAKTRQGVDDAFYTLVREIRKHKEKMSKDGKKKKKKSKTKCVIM
In short: as §1

T1 sequence (P01116 1-188 isoform P01116-2 G12D): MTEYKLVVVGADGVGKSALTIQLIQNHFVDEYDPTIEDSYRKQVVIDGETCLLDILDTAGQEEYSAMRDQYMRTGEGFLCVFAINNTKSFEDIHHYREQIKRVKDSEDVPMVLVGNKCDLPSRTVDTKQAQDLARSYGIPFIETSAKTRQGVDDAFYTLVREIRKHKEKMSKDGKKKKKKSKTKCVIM

SMILES | IC50 (KRASG12D) | IC50 (KRASwt)
N#Cc1c(N)sc2c(F)ccc(-c3c(Cl)cc4c(N5CCC6(CC5)CN(C(=O)C5CC5(F)F)C6)nc(OC[C@@]56CCCN5C[C@H](F)C6)nc4c3F)c12 (stereo partly drawn) [compound 131, 2-amino-4-(6-chloro-4-(2-(2,2-difluorocyclopropane-1-carbonyl)-2,7-diazaspiro[3.5]nonan-7-yl)-8-fluoro-2-(((2R,7aS)-2-fluorotetrahydro-1H-pyrrolizin-7a(5H)-yl)methoxy)quinazolin-7-yl)-7-fluorobenzo[b]thiophene-3-carbonitrile] | < 5 µM | < 5 µM
N#Cc1c(N)sc2c(F)ccc(-c3c(Cl)cc4c(N5CCCCC6(CN(C(=O)[C@@H]7CCOC7)C6)C5)nc(OC[C@@]56CCCN5C[C@H](F)C6)nc4c3F)c12 [compound 230, 2-amino-4-(6-chloro-8-fluoro-2-(((2R,7aS)-2-fluorotetrahydro-1H-pyrrolizin-7a(5H)-yl)methoxy)-4-(2-((R)-tetrahydrofuran-3-carbonyl)-2,6-diazaspiro[3.6]decan-6-yl)quinazolin-7-yl)-7-fluorobenzo[b]thiophene-3-carbonitrile] | < 5 µM | < 5 µM
CN1CCC[C@H]1COc1nc(N2CCOC3(CNC3)C2)c2cc(Cl)c(-c3ccc(F)c4sc(N)c(C#N)c34)c(F)c2n1 (single isomer, unassigned) [compound 114] | < 5 µM | < 5 µM
CC1(C)CN(c2nc(OC[C@@]34CCCN3C[C@H](F)C4)nc3c(F)c(-c4ccc(F)c5sc(N)nc45)c(Cl)cc23)CC2(CNC2)O1 [compound 166, 4-(6-chloro-4-(6,6-dimethyl-5-oxa-2,8-diazaspiro[3.5]nonan-8-yl)-8-fluoro-2-(((2R,7aS)-2-fluorotetrahydro-1H-pyrrolizin-7a(5H)-yl)methoxy)quinazolin-7-yl)-7-fluorobenzo[d]thiazol-2-amine] | < 5 µM | < 5 µM
N#Cc1c(N)sc2c(F)ccc(-c3c(Cl)cc4c(N5CCCCC6(CN(C(=O)C[C@H]7CCOC7)C6)C5)nc(OC[C@@]56CCCN5C[C@H](F)C6)nc4c3F)c12 [compound 304, 2-amino-4-(6-chloro-8-fluoro-2-(((2R,7aS)-2-fluorotetrahydro-1H-pyrrolizin-7a(5H)-yl)methoxy)-4-(2-(2-((R)-tetrahydrofuran-3-yl)acetyl)-2,6-diazaspiro[3.6]decan-6-yl)quinazolin-7-yl)-7-fluorobenzo[b]thiophene-3-carbonitrile] | < 5 µM | < 5 µM
C[C@H](O)C(=O)N1CC2(CCCCN(c3nc(OC[C@@]45CCCN4C[C@H](F)C5)nc4c(F)c(-c5ccc(F)c6sc(N)c(C#N)c56)c(Cl)cc34)C2)C1 [compound 318, 2-amino-4-(6-chloro-8-fluoro-2-(((2R,7aS)-2-fluorotetrahydro-1H-pyrrolizin-7a(5H)-yl)methoxy)-4-(2-((S)-2-hydroxypropanoyl)-2,6-diazaspiro[3.6]decan-6-yl)quinazolin-7-yl)-7-fluorobenzo[b]thiophene-3-carbonitrile] | < 5 µM | < 5 µM
N#Cc1c(N)sc2c(F)ccc(-c3c(Cl)cc4c(N5CCCC6(CCNC6)C5)nc(OC[C@@]56CCCN5C[C@H](F)C6)nc4c3F)c12 (stereo partly drawn) [compound 111, 2-amino-4-(6-chloro-8-fluoro-2-(((2R,7aS)-2-fluorotetrahydro-1H-pyrrolizin-7a(5H)-yl)methoxy)-4-(2,7-diazaspiro[4.5]decan-7-yl)quinazolin-7-yl)-7-fluorobenzo[b]thiophene-3-carbonitrile] | < 5 µM | < 5 µM
N#Cc1c(N)sc2c(F)ccc(-c3c(Cl)cc4c(N5CCCCC6(CN(C(=O)N7CCOCC7)C6)C5)nc(OC[C@@]56CCCN5C[C@H](F)C6)nc4c3F)c12 [compound 325, 2-amino-4-(6-chloro-8-fluoro-2-(((2R,7aS)-2-fluorotetrahydro-1H-pyrrolizin-7a(5H)-yl)methoxy)-4-(2-(morpholine-4-carbonyl)-2,6-diazaspiro[3.6]decan-6-yl)quinazolin-7-yl)-7-fluorobenzo[b]thiophene-3-carbonitrile] | < 5 µM | < 5 µM
CC(=O)N1CC2(CCCCN(c3nc(OC[C@@]45CCCN4C[C@H](F)C5)nc4c(F)c(-c5ccc(F)c6sc(N)c(C#N)c56)c(Cl)cc34)C2)C1 [compound 338, 4-(4-(2-acetyl-2,6-diazaspiro [3.6]decan-6-yl)-6-chloro-8-fluoro-2-(((2R,7aS)-2-fluorotetrahydro-1H-pyrrolizin-7a(5H)-yl)methoxy)quinazolin-7-yl)-2-amino-7-fluorobenzo[b]thiophene-3-carbonitrile] | < 5 µM | < 5 µM
N#Cc1c(N)sc2c(F)ccc(-c3c(Cl)cc4c(N5CCCCC6(CN(C(=O)C7(CC(F)F)CC7)C6)C5)nc(OC[C@@]56CCCN5C[C@H](F)C6)nc4c3F)c12 [compound 227, 2-amino-4-(6-chloro-4-(2-(1-(2,2-difluoroethyl)cyclopropane-1-carbonyl)-2,6-diazaspiro[3.6]decan-6-yl)-8-fluoro-2-(((2R,7aS)-2-fluorotetrahydro-1H-pyrrolizin-7a(5H)-yl)methoxy)quinazolin-7-yl)-7-fluorobenzo[b]thiophene-3-carbonitrile] | < 5 µM | < 5 µM
CN(C)C/C=C/C(=O)N1CC2(C1)CN(c1nc(OC[C@@]34CCCN3C[C@H](F)C4)nc3c(F)c(-c4ccc(F)c5sc(N)c(C#N)c45)c(Cl)cc13)CCO2 [compound 185, 2-amino-4-(6-chloro-4-(2-((E)-4-(dimethylamino)but-2-enoyl)-5-oxa-2,8-diazaspiro[3.5]nonan-8-yl)-8-fluoro-2-(((2R,7aS)-2-fluorotetrahydro-1H-pyrrolizin-7a(5H)-yl)methoxy)quinazolin-7-yl)-7-fluorobenzo[b]thiophene-3-carbonitrile] | < 5 µM | < 5 µM

Results, then the compound that gave them:

IC50 (KRASG12D) | IC50 (KRASwt) | SMILES
< 5 µM | < 5 µM | N#Cc1c(N)sc2c(F)ccc(-c3c(Cl)cc4c(N5CCOC6(CN(C(=O)c7cn[nH]n7)C6)C5)nc(OC[C@@]56CCCN5C[C@H](F)C6)nc4c3F)c12 [compound 163, 4-(4-(2-(2H-1,2,3-triazole-4-carbonyl)-5-oxa-2,8-diazaspiro[3.5]nonan-8-yl)-6-chloro-8-fluoro-2-(((2R,7aS)-2-fluorotetrahydro-1H-pyrrolizin-7a(5H)-yl)methoxy)quinazolin-7-yl)-2-amino-7-fluorobenzo[b]thiophene-3-carbonitrile]
< 5 µM | < 5 µM | N#Cc1c(N)sc2c(F)ccc(-c3c(Cl)cc4c(N5CCCCC6(CN(C(=O)[C@H]7C[C@H]7F)C6)C5)nc(OC[C@@]56CCCN5C[C@H](F)C6)nc4c3F)c12 [compound 193, 2-amino-4-(6-chloro-8-fluoro-4-(2-((1R,2R)-2-fluorocyclopropane-1-carbonyl)-2,6-diazaspiro[3.6]decan-6-yl)-2-(((2R,7aS)-2-fluorotetrahydro-1H-pyrrolizin-7a(5H)-yl)methoxy)quinazolin-7-yl)-7-fluorobenzo[b]thiophene-3-carbonitrile]
< 5 µM | < 5 µM | N#Cc1c(N)sc2c(F)ccc(-c3c(Cl)cc4c(N5CCOCC6(CN(C(=O)[C@H]7CC7(F)F)C6)C5)nc(OC[C@@]56CCCN5C[C@H](F)C6)nc4c3F)c12 [compound 247, 2-amino-4-(6-chloro-4-(2-((R)-2,2-difluorocyclopropane-1-carbonyl)-6-oxa-2,9-diazaspiro[3.6]decan-9-yl)-8-fluoro-2-(((2R,7aS)-2-fluorotetrahydro-1H-pyrrolizin-7a(5H)-yl)methoxy)quinazolin-7-yl)-7-fluorobenzo[b]thiophene-3-carbonitrile]
< 5 µM | < 5 µM | N#Cc1c(N)sc2c(F)ccc(-c3c(Cl)cc4c(N5CCOC6(CN(C(=O)N7CC(C#N)C7)C6)C5)nc(OC[C@@]56CCCN5C[C@H](F)C6)nc4c3F)c12 [compound 257, 1-(8-(7-(2-amino-3-cyano-7-fluorobenzo[b]thiophen-4-yl)-6-chloro-8-fluoro-2-(((2R,7aS)-2-fluorotetrahydro-1H-pyrrolizin-7a(5H)-yl)methoxy)quinazolin-4-yl)-5-oxa-2,8-diazaspiro[3.5]nonane-2-carbonyl)azetidine-3-carbonitrile]
< 5 µM | < 5 µM | N#Cc1c(N)sc2c(F)ccc(-c3c(Cl)cc4c(N5CCCCC6(CN(C(=O)N7CCCC7)C6)C5)nc(OC[C@@]56CCCN5C[C@H](F)C6)nc4c3F)c12 [compound 231, 2-amino-4-(6-chloro-8-fluoro-2-(((2R,7aS)-2-fluorotetrahydro-1H-pyrrolizin-7a(5H)-yl)methoxy)-4-(2-(pyrrolidine-1-carbonyl)-2,6-diazaspiro[3.6]decan-6-yl)quinazolin-7-yl)-7-fluorobenzo[b]thiophene-3-carbonitrile]
< 5 µM | < 5 µM | CC(C)[C@H](N)C(=O)N1CC2(CCCCN(c3nc(OC[C@@]45CCCN4C[C@H](F)C5)nc4c(F)c(-c5ccc(F)c6sc(N)c(C#N)c56)c(Cl)cc34)C2)C1 [compound 221, 4-(4-(2-(L-valyl)-2,6-diazaspiro[3.6]decan-6-yl)-6-chloro-8-fluoro-2-(((2R,7aS)-2-fluorotetrahydro-1H-pyrrolizin-7a(5H)-yl)methoxy)quinazolin-7-yl)-2-amino-7-fluorobenzo[b]thiophene-3-carbonitrile]
< 5 µM | < 5 µM | CC(C)(O)C(F)(F)C(=O)N1CC2(CCCCN(c3nc(OC[C@@]45CCCN4C[C@H](F)C5)nc4c(F)c(-c5ccc(F)c6sc(N)c(C#N)c56)c(Cl)cc34)C2)C1 [compound 339, 2-amino-4-(6-chloro-4-(2-(2,2-difluoro-3-hydroxy-3-methylbutanoyl)-2,6-diazaspiro[3.6]decan-6-yl)-8-fluoro-2-(((2R,7aS)-2-fluorotetrahydro-1H-pyrrolizin-7a(5H)-yl)methoxy)quinazolin-7-yl)-7-fluorobenzo[b]thiophene-3-carbonitrile]
